Test results reported in ChEMBL document CHEMBL3885881, “DrugMatrix”.

Organism: Rattus norvegicus
Test: DrugMatrix - Regimen: Daily Repeat
Type: toxicity, organism-based, Sprague-Dawley
Design: regimen Daily Repeat, gender Male, age 6-8 weeks
Conditions: in vivo, sc, […], route mini-PUMP - SUBCUTANEOUS, dose 4.2 mg/Kg, vehicle 100 % SALINE; for ABSOLUTE EOSINOPHIL / ABSOLUTE LYMPHOCYTE / ABSOLUTE MONOCYTE / ABSOLUTE SEGMENTED NEUTROPHIL / BASOPHIL / EOSINOPHIL / ERYTHROCYTE COUNT / HEMATOCRIT / HEMOGLOBIN / LEUKOCYTE COUNT / LYMPHOCYTE / MEAN CORPUSCULAR HEMOGLOBIN / MEAN CORPUSCULAR HEMOGLOBIN CONCENTRATION / MEAN CORPUSCULAR VOLUME / MONOCYTE / NEUTROPHIL / NUCLEATED RED BLOOD CELLS / PLATELET COUNT / ABSOLUTE BASOPHIL: tissue Blood; for ALANINE AMINOTRANSFERASE / ALBUMIN / ALKALINE PHOSPHATASE / ASPARTATE AMINOTRANSFERASE / BLOOD UREA NITROGEN / CARBON DIOXIDE / CHLORIDE / CHOLESTEROL / CREATININE / GLUCOSE / LACTATE DEHYDROGENASE / LIPASE / PHOSPHORUS / POTASSIUM / SODIUM / TOTAL BILIRUBIN / TOTAL PROTEIN / URIC ACID: tissue Plasma
[1] = 72 h, dose level M1, time 3 day
[2] = 120 h, dose level M1, time 5 day

CC(C)NCC(O)c1ccc(O)c(O)c1 (stereo not given) [ISOPROTERENOL]
ABSOLUTE EOSINOPHIL [1]: 46 CELLS/uL
ABSOLUTE LYMPHOCYTE [1]: 13359 CELLS/uL
ABSOLUTE MONOCYTE [1]: 389.67 CELLS/uL
ABSOLUTE SEGMENTED NEUTROPHIL [1]: 972 CELLS/uL
BASOPHIL [1]: 0%
EOSINOPHIL [1]: 0.33%
ERYTHROCYTE COUNT [1]: 5.5 x10E6/uL
HEMATOCRIT [1]: 32.97%
HEMOGLOBIN [1]: 12.13 G/DL
LEUKOCYTE COUNT [1]: 14.77 x10E3/uL
LYMPHOCYTE [1]: 90.33%
MEAN CORPUSCULAR HEMOGLOBIN [1]: 22.1 pg
MEAN CORPUSCULAR HEMOGLOBIN CONCENTRATION [1]: 36.8 G/DL
MEAN CORPUSCULAR VOLUME [1]: 60.03 fL
MONOCYTE [1]: 2.67%
NEUTROPHIL [1]: 6.67%
NUCLEATED RED BLOOD CELLS [1]: 0.33 /100WBC
PLATELET COUNT [1]: 1142.67 x10E3/uL
ALANINE AMINOTRANSFERASE [1]: 50.67 u/L
ALBUMIN [1]: 3.93 G/DL
ALKALINE PHOSPHATASE [1]: 337 u/L
ASPARTATE AMINOTRANSFERASE [1]: 73.67 u/L
BLOOD UREA NITROGEN [1]: 13.33 mg/dL
CARBON DIOXIDE [1]: 25.33 mmol/L
CHLORIDE [1]: 103.67 MEQ/L
CHOLESTEROL [1]: 77.33 mg/dL
CREATININE [1]: 0.18 mg/dL
GLUCOSE [1]: 140.33 mg/dL
LACTATE DEHYDROGENASE [1]: 151 u/L
LIPASE [1]: 9 u/L
PHOSPHORUS [1]: 10.17 mg/dL
POTASSIUM [1]: 7.09 MEQ/L
SODIUM [1]: 146.4 MEQ/L
TOTAL BILIRUBIN [1]: 0.2 mg/dL
TOTAL PROTEIN [1]: 5.9 G/DL
URIC ACID [1]: 2.33 mg/dL
ABSOLUTE BASOPHIL [2]: 0 CELLS/uL
ABSOLUTE EOSINOPHIL [2]: 84 CELLS/uL
ABSOLUTE LYMPHOCYTE [2]: 11630 CELLS/uL
ABSOLUTE MONOCYTE [2]: 485 CELLS/uL
ABSOLUTE SEGMENTED NEUTROPHIL [2]: 2701 CELLS/uL
BASOPHIL [2]: 0%
EOSINOPHIL [2]: 0.5%
ERYTHROCYTE COUNT [2]: 5.61 x10E6/uL
HEMATOCRIT [2]: 34.6%
HEMOGLOBIN [2]: 12.85 G/DL
LEUKOCYTE COUNT [2]: 14.9 x10E3/uL
LYMPHOCYTE [2]: 78.5%
MEAN CORPUSCULAR HEMOGLOBIN [2]: 22.95 pg
MEAN CORPUSCULAR HEMOGLOBIN CONCENTRATION [2]: 37.15 G/DL
MEAN CORPUSCULAR VOLUME [2]: 61.75 fL
MONOCYTE [2]: 3%
NEUTROPHIL [2]: 18%
NUCLEATED RED BLOOD CELLS [2]: 0.5 /100WBC
PLATELET COUNT [2]: 1202 x10E3/uL
ALANINE AMINOTRANSFERASE [2]: 57 u/L
ALBUMIN [2]: 4.05 G/DL
ALKALINE PHOSPHATASE [2]: 244.5 u/L
ASPARTATE AMINOTRANSFERASE [2]: 74 u/L
BLOOD UREA NITROGEN [2]: 11.5 mg/dL
CARBON DIOXIDE [2]: 27 mmol/L
CHLORIDE [2]: 104.5 MEQ/L
CHOLESTEROL [2]: 70 mg/dL
CREATININE [2]: 0.15 mg/dL
GLUCOSE [2]: 152 mg/dL
LACTATE DEHYDROGENASE [2]: 156 u/L
LIPASE [2]: 8.5 u/L
PHOSPHORUS [2]: 13.1 mg/dL
POTASSIUM [2]: 6.73 MEQ/L
SODIUM [2]: 149.4 MEQ/L
TOTAL BILIRUBIN [2]: 0.15 mg/dL
TOTAL PROTEIN [2]: 5.9 G/DL
URIC ACID [2]: 2.25 mg/dL
ABSOLUTE BASOPHIL (dose level M1, time 14 day): 0 CELLS/uL
ABSOLUTE EOSINOPHIL (dose level M1, time 14 day): 0 CELLS/uL
ABSOLUTE LYMPHOCYTE (dose level M1, time 14 day): 12693.75 CELLS/uL
ABSOLUTE MONOCYTE (dose level M1, time 14 day): 445.5 CELLS/uL
ABSOLUTE SEGMENTED NEUTROPHIL (dose level M1, time 14 day): 2010.75 CELLS/uL
BASOPHIL (dose level M1, time 14 day): 0%
EOSINOPHIL (dose level M1, time 14 day): 0%
ERYTHROCYTE COUNT (dose level M1, time 14 day): 5.78 x10E6/uL
HEMATOCRIT (dose level M1, time 14 day): 35.65%
HEMOGLOBIN (dose level M1, time 14 day): 12.93 G/DL
LEUKOCYTE COUNT (dose level M1, time 14 day): 15.15 x10E3/uL
LYMPHOCYTE (dose level M1, time 14 day): 83.25%
MEAN CORPUSCULAR HEMOGLOBIN (dose level M1, time 14 day): 22.38 pg
MEAN CORPUSCULAR HEMOGLOBIN CONCENTRATION (dose level M1, time 14 day): 36.27 G/DL
MEAN CORPUSCULAR VOLUME (dose level M1, time 14 day): 61.73 fL
MONOCYTE (dose level M1, time 14 day): 3.25%
NEUTROPHIL (dose level M1, time 14 day): 13.5%
NUCLEATED RED BLOOD CELLS (dose level M1, time 14 day): 0 /100WBC
PLATELET COUNT (dose level M1, time 14 day): 856.5 x10E3/uL
ALANINE AMINOTRANSFERASE (dose level M1, time 14 day): 62.75 u/L
ALBUMIN (dose level M1, time 14 day): 4.12 G/DL
ALKALINE PHOSPHATASE (dose level M1, time 14 day): 336 u/L
ASPARTATE AMINOTRANSFERASE (dose level M1, time 14 day): 83.25 u/L
BLOOD UREA NITROGEN (dose level M1, time 14 day): 16.5 mg/dL
CARBON DIOXIDE (dose level M1, time 14 day): 32 mmol/L
CHLORIDE (dose level M1, time 14 day): 100.75 MEQ/L
CHOLESTEROL (dose level M1, time 14 day): 75.75 mg/dL
CREATININE (dose level M1, time 14 day): 0.21 mg/dL
GLUCOSE (dose level M1, time 14 day): 144 mg/dL
LACTATE DEHYDROGENASE (dose level M1, time 14 day): 122.25 u/L
LIPASE (dose level M1, time 14 day): 8.75 u/L
PHOSPHORUS (dose level M1, time 14 day): 13.35 mg/dL
POTASSIUM (dose level M1, time 14 day): 7.05 MEQ/L
SODIUM (dose level M1, time 14 day): 145.78 MEQ/L
TOTAL BILIRUBIN (dose level M1, time 14 day): 0.1 mg/dL
TOTAL PROTEIN (dose level M1, time 14 day): 6.1 G/DL
URIC ACID (dose level M1, time 14 day): 1.88 mg/dL
